The subject of series [1] is SARS-CoV-2 (BetaCov/Belgium/GHB-03021/2020). In words: microbe, parasite or virus in culture. The note with it: Severe acute respiratory syndrome coronavirus 2, Vero C1008, read-out: EC50: compound concentration required to inhibit SARS-CoV-2 replication by 50%.
The next series can be described thus: in vitro. The note with it: African green monkey.
The test system of series [2] is SARS-CoV-2 (BetaCov/Belgium/GHB-03021/2020). In words: in vitro. Conditions: African green monkey.
The target of series [3] is SARS-CoV-2 nsp12/7/8 (RTC) complex (Severe acute respiratory syndrome coronavirus 2, UniProt P0DTD1). Description: biochemical. The format is biochemical.
A short description of series [4]: Compounds cytotoxicity in the Vero E6 cell line. Conditions: African green monkey, Vero E6 cells stably expressing GFP, with CP-100356 (P-gp inhibitor), 2 μM.
The next series has as its system SARS-CoV-2. Conditions: cited from earlier work.
The target of another series is SARS-CoV-2 RTC (Severe acute respiratory syndrome coronavirus 2, UniProt P0DTD1). The format is biochemical. The note with it: competing against RNA or GTP substrates; Lineweaver-Burk plots.
The test system of the next series is RNA substrate. Description: Microscale Thermophoresis/Spectral Shift binding assay with RNA substrate (Monolith X). Conditions: data not shown. (In general: Microscale thermophoresis detects binding through changes in fluorescence in a small temperature gradient.)
The target of a further series is SARS-CoV-2 minimal RTC (Severe acute respiratory syndrome coronavirus 2, UniProt P0DTD1). The format is binding.
Series [5] concerns SARS-CoV-2 (BetaCov/Belgium/GHB-03021/2020).
Where [6] appears, read: primer-extension PAGE assay, 150 nM RTC, 5% DMSO, 30 min preincubation at 37 °C, mean and SD of at least 3 independent experiments.
[7] abbreviates: 500 µM compound, Microscale Thermophoresis, Fig. S3.

Read-outs that look alike come from different tables or passages of the source.

Regarding `Cc1oc2c(C)c3oc(=O)c(CCC(=O)N4CCC(C(=O)O)(c5ccccc5)CC4)c(C)c3cc2c1-c1ccccc1` [Cmp_4, 4-phenyl-1-[3-(2,5,9-trimethyl-7-oxo-3-phenylfuro[3,2-g]chromen-6-yl)propanoyl]piperidine-4-carboxylic acid], in [1], the EC50 amounted to 2.61 ± 0.18 µM. Further, the CC50 at 24 h in the series “in vitro” is greater than 100 µM. In addition, in series [2], the selectivity ratio was greater than 38.4. Moreover, the IC50 in series [3] (setting [6]) turned out to be 8.21 ± 4.87 µM.
As to `CC(=O)O[C@@H]1CC[C@@]2(C)[C@@H](CC[C@]3(C)[C@@H]2C(=O)C=C2[C@@H]4[C@@H](C)[C@H](C)CC[C@]4(C)CC[C@]23C)[C@@]1(C)C(=O)O` [AKBA, 3-O-Acetyl-11-Keto-Beta-Boswellic Acid], in series [4], the CC50 at 24 h is greater than 100 µM. The EC50 in series [1] worked out at 4.81 ± 2.15 µM. For the same compound, in [2], the selectivity ratio is greater than 20.8. Inhibition in series [3] was half-maximal at 4.98 ± 1.44 µM (IC50).
As to `O=C(O)c1c(Cl)c(Cl)c(Cl)c(Cl)c1-c1c2cc(I)c(=O)c(I)c-2oc2c(I)c(O)c(I)cc12` [Rose bengal], the EC50 in [1] was 0.18 ± 0.02 µM; in the series on SARS-CoV-2 (ref previous studies (number not given; probably 25, Rubekina et al.), read-out: EC50, inhibition of SARS-CoV-2 replication) it was 0.5 µM. Moreover, the CC50 in the series “in vitro” was greater than 100 µM. Also, the “mode of inhibition of SARS-CoV-2 RdRp” value at SARS-CoV-2 RTC is recorded as “mixed model of inhibition”. The selectivity ratio in series [2] is greater than 546. The “interaction with RNA substrate” value in the series with RNA substrate is given as “no evidence of interaction”. This compound also displayed an IC50 in [3] (setting [6]) of 0.25 ± 0.0036 µM.
In the case of `CC1(C)CCC(CN2CCN(c3ccc(C(=O)NS(=O)(=O)c4ccc(NCC5CCOCC5)c([N+](=O)[O-])c4)c(Oc4cnc5[nH]ccc5c4)c3)CC2)=C(c2ccc(Cl)cc2)C1` [Venetoclax], in series [1], the EC50 turned out to be 0.85 ± 0.08 µM. This compound showed a CC50 in the series “in vitro” greater than 100 µM. The EC50 in the series on SARS-CoV-2 (ref number not printed in the text (probably 27, Milani et al.), read-out: EC50, inhibition of SARS-CoV-2 replication in cell culture) was 6 µM. In addition, the “mode of inhibition of SARS-CoV-2 RdRp” value on SARS-CoV-2 RTC is given as “noncompetitive mode of inhibition”. The selectivity ratio in [2] was greater than 118. In series [3] (setting [6]), the IC50 was 2.37 ± 0.42 µM. On SARS-CoV-2 minimal RTC (setting [7]), the response amplitude was found to be 3.9 and the signal-to-noise ratio was 7.7. Further, on SARS-CoV-2 minimal RTC (single concentration of 500 μM of compound), the “binding check to SARS-CoV-2 minimal RTC” value is on record as “specific binding”.
As to `CC(C)C[C@H](NC(=O)OCc1ccccc1)C(=O)N[C@@H](C[C@@H]1CCNC1=O)C(O)S(=O)(=O)[O-].[Na+]` (stereo partly drawn) [GC376], the “SI: selective index, ratio of CC50/EC50” value in [5] is on record as >5,882.
For `CC(C)C[C@H](NC(=O)OCc1ccccc1)C(=O)N[C@@H](CC1CCNC1=O)C(O)S(=O)(=O)O` (stereo partly drawn) [GC376], in [5] (read-out: EC50: compound concentration required to inhibit SARS-CoV-2 replication by 50%), the EC50 was 0.06 ± 0.03 µM. Besides, the CC50 in the series with Vero E6 GFP was greater than 100 µM.

One may read the IC50 as the concentration that inhibits the measured activity by half.

(Values after publication PMC12519464, “Dual-Site Inhibition of SARS-CoV‑2 RNA-Dependent RNA Polymerase by Small Molecules Able to Block Viral Replication Identified through a Computer-Aided Drug Discovery Approach” (ACS Infectious Diseases, 2025).)
